Starred links: 1 amine or outer side, 2 acyl side, 3 side chain; linkers in the order of their positions; H or OH if unused. Positions of bridges follow the written chain, without caps; N, C: chain ends. Non-standard residues stand in square brackets, D forms with d. Residues, ends and D or L forms follow the SMILES beside them. Chains are numbered I, II in the order given. *: point of attachment. Orn((CH2)6NH2) = O=C([C@H](CCCNCCCCCCN[*:3])N[*:1])[*:2]; X3 = O=C([C@H](CCCNCCCCN[*:3])N[*:1])[*:2]; Glutaryl = O=C(CCCC(=O)[*:2])[*:1]; Suc = O=C(CCC(=O)[*:2])[*:1]; PhAc = O=C(Cc1ccccc1)*
Target: T1, human V1aR (Homo sapiens, UniProt P37288)
T1 construct: expressed in transfected cells
Assay: Agonist activity at vasopressin V1a receptors, cell-based FLIPR calcium assay
Conditions: for Emax: read-out: Efficacy Avg. (%)
Experimental: Efficacy (% MPE) is also determined as the percentage of maximal possible effect. This agonist assay utilizes cells from a stable cell line (HEK-flpin) expressing the vasopressin V1a receptor. Intracellular calcium increase in response to agonist is measured through real-time fluorescence of an intracellular calcium-sensitive dye. Cells are exposed to varying concentrations of test agonist compounds whereupon release of intracellular calcium is measured to determine the agonist potency and efficacy.
The cell line stably expresses the lacZ-Zeocin™ fusion gene and is designed for use with the Flp-In™ expression vector containing the gene of interest and the Flp recombinase expression plasmid, pOG44. The cell line contains a single integrated Flp Recombination Target (FRT) site from pFRT/lacZeo or pFRT/lacZeo2. To generate the HEK-flpin cell line stably expressing the human V1aR, the cells were co-transfected with the Flp-In™ expression vector containing the gene of interest (pcDNA5/FRT-hV1aR) and the Flp recombinase expression plasmid pOG44. Flp recombinase mediates insertion of the Flp-In™ expression vector into the genome at the integrated FRT site through site-specific DNA recombination. Stable cell lines expressing the hV1aR from the Flp-In™ expression vector can be generated by selection using hygromycin B. See Life Technologies/Invitrogen manual, Growth and Maintenance of Flp-In™ Cell Lines, Version E, published Feb.
Efficacy of this compound was set to be 100%. A stock solution of 5 mM was made up in DMSO and stored at −20° C.
HEK-flpin-hV1aR, cmcqV1aR, dV1aR and pV1aR cells were maintained in DMEM containing 10% (v/v) FBS-HI, 4 mM GlutaMAX™-I, 25 μg/mL Hygromycin B at 37° C. under 5% CO2 in a humidified atmosphere. Subculture was achieved by splitting semi-confluent cultures 1:3 to 1:6.
All compounds were made up in 100% DMSO at 10 mM stock concentrations and stored at −20° C. The compounds were allowed to thaw just before the assay. […] Typical dilution procedure of 10× final assay concentration involved a 1:100 top dilution (e.g., 2 μl Stock into 198 μl dilution medium) followed by half-log serial dilutions (e.g., 25.3 μl into 54.7 μl dilution medium supplemented with 1% DMSO (v/v)). (Dilution media consisted of phenol-red free DMEM containing 10% FBS-HI, 4 mM GlutaMAX™-I). […] The final DMSO concentration in the assay was 0.1%.
Loading Buffer was prepared by dissolving 1 vial of Calcium 4 Assay reagent in 100 mL of 1× HBSS-20 mM Hepes buffer.
The cells were loaded with Loading Buffer as follows. Cell plates were removed from the incubator and 20 μl of Loading Buffer containing probenecid (2.5 mM) was added to each well. The cells were incubated for 1 hr at 37° C. under 5% CO2 in a humidified atmosphere. The calcium image was obtained as follows.
The cell plates were transferred to FLIPR Tetra, along with a 384 well V-bottom plate pre-loaded with half-log concentrations of test compounds at 10× final test concentrations. The remaining steps of the assay were carried forward by FLIPR Tetra. A baseline reading was taken at 1-second (s) intervals for 5s followed by the addition of 5 μl of 10× compounds (test, reference, or Blank). The agonist-induced fluorescence signal was then measured for 180 s with initial 120 readings at 1-second intervals followed by 20 readings at 3-second intervals. Overall, each well in the FLIPR assay was composed of the following components in a total volume of 50 μl: 20 μl cells; 20 μl Calcium 4 Loading Buffer; […] 10× test or reference compound.

T1 sequence (P37288 whole entry): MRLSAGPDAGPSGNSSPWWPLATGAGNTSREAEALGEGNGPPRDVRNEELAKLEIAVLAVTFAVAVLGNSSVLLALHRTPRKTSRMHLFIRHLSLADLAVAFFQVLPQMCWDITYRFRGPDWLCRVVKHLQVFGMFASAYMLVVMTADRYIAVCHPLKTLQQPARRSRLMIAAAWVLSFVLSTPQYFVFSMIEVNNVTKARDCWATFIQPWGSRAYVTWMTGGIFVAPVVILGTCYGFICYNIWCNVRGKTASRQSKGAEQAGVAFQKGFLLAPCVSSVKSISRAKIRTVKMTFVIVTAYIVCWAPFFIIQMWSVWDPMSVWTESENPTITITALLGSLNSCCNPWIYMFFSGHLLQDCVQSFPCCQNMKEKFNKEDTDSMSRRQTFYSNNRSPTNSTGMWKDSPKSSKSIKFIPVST

Row | SMILES | EC50 | Emax
1 | CC[C@H](C)[C@@H]1NC(=O)[C@H](Cc2ccccc2)NC(=O)[C@@H](N)CSSC[C@@H](C(=O)N2CCC[C@H]2C(=O)N[C@@H](CCCNCCCCCCNC(=O)CCC(=O)NCCCC[C@H](NC(=O)[C@H](CCCNC(=N)N)NC(=O)[C@@H]2CCCN2C(=O)[C@H](CCCNC(=N)N)NC(=O)[C@H](CC(N)=O)NC(=O)[C@H](CCC(N)=O)NC(=O)[C@H](Cc2ccccc2)NC(=O)[C@@H](Cc2ccc(OC)cc2)NC(=O)Cc2ccccc2)C(N)=O)C(=O)NCC(N)=O)NC(=O)[C@H](CC(N)=O)NC(=O)[C@H](CCC(N)=O)NC1=O [Compound 1] (I: H-CFIQNCP[Orn((CH2)6NH2)]G-NH2 / II: PhAc-[dY](Me)FQNRPRK-NH2; disulfide I:1-I:6; linker I:8-II:8 via Suc) | 1 nM | 30%
2 | CC[C@H](C)[C@@H]1NC(=O)[C@H](Cc2ccccc2)NC(=O)[C@@H](N)CSSC[C@@H](C(=O)N2CCC[C@H]2C(=O)N[C@@H](CCCNCCCCCNC(=O)CC[C@H](NC(=O)[C@H](CCCNC(=N)N)NC(=O)[C@@H]2CCCN2C(=O)[C@H](C)NC(=O)[C@H](CC(N)=O)NC(=O)[C@H](CCC(N)=O)NC(=O)[C@H](Cc2ccccc2)NC(=O)[C@@H](Cc2ccc(OC)cc2)NC(=O)Cc2ccccc2)C(N)=O)C(=O)NCC(N)=O)NC(=O)[C@H](CC(N)=O)NC(=O)[C@H](CCC(N)=O)NC1=O [Compound 2] | 0.69 nM | 52%
3 | CC[C@H](C)[C@@H]1NC(=O)[C@H](Cc2ccccc2)NC(=O)[C@@H](N)CSSC[C@@H](C(=O)N2CCC[C@H]2C(=O)N[C@@H](CCCNCCCCNC(=O)CCCC(=O)NCCCC[C@H](NC(=O)[C@H](CCCNC(=N)N)NC(=O)[C@@H]2CCCN2C(=O)[C@H](CCCNC(=N)N)NC(=O)[C@H](CC(N)=O)NC(=O)[C@H](CCC(N)=O)NC(=O)[C@H](Cc2ccccc2)NC(=O)[C@@H](Cc2ccc(OC)cc2)NC(=O)Cc2ccccc2)C(N)=O)C(=O)NCC(N)=O)NC(=O)[C@H](CC(N)=O)NC(=O)[C@H](CCC(N)=O)NC1=O [Compound 3] (I: H-CFIQNCP[X3]G-NH2 / II: PhAc-[dY](Me)FQNRPRK-NH2; disulfide I:1-I:6; linker I:8-II:8 via Glutaryl) | 2.9 nM | 39%
4 | CC[C@H](C)[C@@H]1NC(=O)[C@H](Cc2ccccc2)NC(=O)[C@@H](N)CSSC[C@@H](C(=O)N2CCC[C@H]2C(=O)N[C@@H](CCCNCCCCCCNC(=O)CC[C@H](NC(=O)[C@H](CCCNC(=N)N)NC(=O)[C@@H]2CCCN2C(=O)[C@H](C)NC(=O)[C@H](CC(N)=O)NC(=O)[C@H](CCC(N)=O)NC(=O)[C@H](Cc2ccccc2)NC(=O)[C@@H](Cc2ccc(OC)cc2)NC(=O)Cc2ccccc2)C(N)=O)C(=O)NCC(N)=O)NC(=O)[C@H](CC(N)=O)NC(=O)[C@H](CCC(N)=O)NC1=O [Compound 4] | 1.5 nM | 24%
5 | CC[C@H](C)[C@@H]1NC(=O)[C@H](Cc2ccccc2)NC(=O)[C@@H](N)CSSC[C@@H](C(=O)N2CCC[C@H]2C(=O)N[C@@H](CCCNCCCCCCNC(=O)CCCCNC(=O)CC[C@H](NC(=O)[C@H](CCCNC(=N)N)NC(=O)[C@@H]2CCCN2C(=O)[C@H](C)NC(=O)[C@H](CC(N)=O)NC(=O)[C@H](CCC(N)=O)NC(=O)[C@H](Cc2ccccc2)NC(=O)[C@@H](Cc2ccc(OC)cc2)NC(=O)Cc2ccccc2)C(N)=O)C(=O)NCC(N)=O)NC(=O)[C@H](CC(N)=O)NC(=O)[C@H](CCC(N)=O)NC1=O [Compound 5] | 1.3 nM | 28%
6 | CC[C@H](C)[C@@H]1NC(=O)[C@H](Cc2ccccc2)NC(=O)[C@@H](N)CSSC[C@@H](C(=O)N2CCC[C@H]2C(=O)N[C@@H](CCCNCCCCCC(=O)NCCCC[C@H](NC(=O)[C@H](CCCNC(=N)N)NC(=O)[C@@H]2CCCN2C(=O)[C@H](CCCNC(=N)N)NC(=O)[C@H](CC(N)=O)NC(=O)[C@H](CCC(N)=O)NC(=O)[C@H](Cc2ccccc2)NC(=O)[C@@H](Cc2ccc(OC)cc2)NC(=O)Cc2ccccc2)C(N)=O)C(=O)NCC(N)=O)NC(=O)[C@H](CC(N)=O)NC(=O)[C@H](CCC(N)=O)NC1=O [Compound 6] | 2.5 nM | 28%
7 | CC[C@H](C)[C@@H]1NC(=O)[C@H](Cc2ccccc2)NC(=O)[C@@H](N)CSSC[C@@H](C(=O)N2CCC[C@H]2C(=O)N[C@@H](CCCNCCCC(=O)NCCCC[C@H](NC(=O)[C@H](CCCNC(=N)N)NC(=O)[C@@H]2CCCN2C(=O)[C@H](CCCNC(=N)N)NC(=O)[C@H](CC(N)=O)NC(=O)[C@H](CCC(N)=O)NC(=O)[C@H](Cc2ccccc2)NC(=O)[C@@H](Cc2ccc(OC)cc2)NC(=O)Cc2ccccc2)C(N)=O)C(=O)NCC(N)=O)NC(=O)[C@H](CC(N)=O)NC(=O)[C@H](CCC(N)=O)NC1=O [Compound 7] | > 10000 nM | 24%
8 | CC[C@H](C)[C@@H]1NC(=O)[C@H](Cc2ccccc2)NC(=O)[C@@H](N)CSSC[C@@H](C(=O)N2CCC[C@H]2C(=O)N[C@@H](CCCNCCCCCC(=O)NCCCC[C@H](NC(=O)[C@H](CCCNC(=N)N)NC(=O)[C@@H]2CCCN2C(=O)[C@H](C)NC(=O)[C@H](CC(N)=O)NC(=O)[C@H](CCC(N)=O)NC(=O)[C@H](Cc2ccccc2)NC(=O)[C@@H](Cc2ccc(OC)cc2)NC(=O)Cc2ccccc2)C(N)=O)C(=O)NCC(N)=O)NC(=O)[C@H](CC(N)=O)NC(=O)[C@H](CCC(N)=O)NC1=O [Compound 8] | > 10000 nM | 50%
9 | CC[C@H](C)[C@@H]1NC(=O)[C@H](Cc2ccccc2)NC(=O)[C@@H](N)CSSC[C@@H](C(=O)N2CCC[C@H]2C(=O)N[C@@H](CCCNCCCCCC(=O)NCCCC[C@H](NC(=O)[C@H](CCCNC(=N)N)NC(=O)[C@@H]2CCCN2C(=O)[C@H](CC(C)C)NC(=O)[C@H](CC(N)=O)NC(=O)[C@H](CCC(N)=O)NC(=O)[C@H](Cc2ccccc2)NC(=O)[C@@H](Cc2ccc(OC)cc2)NC(=O)Cc2ccccc2)C(N)=O)C(=O)NCC(N)=O)NC(=O)[C@H](CC(N)=O)NC(=O)[C@H](CCC(N)=O)NC1=O [Compound 9] | > 10000 nM | 34%
10 | CC[C@H](C)[C@@H]1NC(=O)[C@H](Cc2ccccc2)NC(=O)[C@@H](N)CSSC[C@@H](C(=O)N2CCC[C@H]2C(=O)N[C@@H](CCCNCCCCNC(=O)CC[C@H](NC(=O)[C@H](CCCNC(=N)N)NC(=O)[C@@H]2CCCN2C(=O)[C@H](CCCNC(=N)N)NC(=O)[C@H](CC(N)=O)NC(=O)[C@H](CCC(N)=O)NC(=O)[C@H](Cc2ccccc2)NC(=O)[C@@H](Cc2ccc(OC)cc2)NC(=O)Cc2ccccc2)C(N)=O)C(=O)NCC(N)=O)NC(=O)[C@H](CC(N)=O)NC(=O)[C@H](CCC(N)=O)NC1=O [Compound 10] | > 10000 nM | 26%
11 | CC[C@H](C)[C@@H]1NC(=O)[C@H](Cc2ccccc2)NC(=O)[C@@H](N)CSSC[C@@H](C(=O)N2CCC[C@H]2C(=O)N[C@@H](CCCNCCCCCNC(=O)CC[C@H](NC(=O)[C@H](CCCNC(=N)N)NC(=O)[C@@H]2CCCN2C(=O)[C@H](CO)NC(=O)[C@H](CC(N)=O)NC(=O)[C@H](CCC(N)=O)NC(=O)[C@H](Cc2ccccc2)NC(=O)[C@@H](Cc2ccc(OC)cc2)NC(=O)Cc2ccccc2)C(N)=O)C(=O)NCC(N)=O)NC(=O)[C@H](CC(N)=O)NC(=O)[C@H](CCC(N)=O)NC1=O [Compound 11] | 2.2 nM | 51%
12 | CC[C@H](C)[C@@H]1NC(=O)[C@H](Cc2ccccc2)NC(=O)[C@@H](N)CSSC[C@@H](C(=O)N2CCC[C@H]2C(=O)N[C@@H](CCCNCCCCCNC(=O)CC[C@H](NC(=O)[C@H](CCCNC(=N)N)NC(=O)[C@@H]2CCCN2C(=O)[C@H](CCCCN)NC(=O)[C@H](CC(N)=O)NC(=O)[C@H](CCC(N)=O)NC(=O)[C@H](Cc2ccccc2)NC(=O)[C@@H](Cc2ccc(OC)cc2)NC(=O)Cc2ccccc2)C(N)=O)C(=O)NCC(N)=O)NC(=O)[C@H](CC(N)=O)NC(=O)[C@H](CCC(N)=O)NC1=O [Compound 12] | 2.3 nM | 39%

— US20160122386A1, “V1A RECEPTOR AGONISTS” (FERRING B.V., priority 2014, published 2016)
